The results in this text go back to US20050244966A1, “Insulin producing cells” (Ramot At Tel Aviv University Ltd., priority 2003, published 2005).

In this experiment the test system is FH-B-TPN cells. Nature of the experiment: Insulin content of FH-B-TPN cells (RIA/ELISA of cell extracts). In kind it is cell-based, human. To be noted: for Insulin content / Fold increase (insulin content): FH-B-TPN cells; for Insulin content / Effect on insulin content of FH-B-TPN cells (in words): RIA; for Fold increase (insulin content): vs CM; for Effect on insulin content of FH-B-TPN cells (in words): in CM, compared with regular medium or with Act-A alone. As for the experimental part: FH cells were isolated and cultured as described (19), in Dulbecco's modified Eagle's medium containing 25 mM glucose and supplemented with 10% fetal bovine serum (FBS), 100 U/ml penicillin, 100 μg/ml streptomycin, 5 μM hydrocortisone, and 5 μg/ml insulin. A subclone of FH cells that was stably transduced with hTERT, designated FH-B-hTERT (FH-B), was cultured in the same medium, as described (20). FH-B cells transduced with the Pdx1 gene (see below), designated FH-B-TPN cells, were maintained in the same culture medium, with the exception of hydrocortisone and insulin (complete medium CM). For incubation in serum-free medium, the cells were placed in DMEM containing antibiotics, in the presence of 100 ng/ml insulin, 55 ng/ml transferrin, and 50 pg/ml selenium (ITS, Sigma). For all experiments activin A (Cytolab/PreproTech Asia, Rehovot, Israel) was added at a final concentration of 4 nM. except for those aimed at promoting differentiation of FH-B-TPN cells towards the beta-cell phenotype. There, addition of Act-A, as well as betacellulin (BTC, R&D Systems, Minneapolis, Minn.), nicotinamide (NA), exendin-4, and hepatocyte growth factor (HGF) (the last 3 compounds from Sigma-Aldrich) was at concentrations detailed herein below.
Insulin secretion from FH-B-TPN cells was measured by static incubation as previously described (2). Cells were plated in 24-well plates at 10^5 cells per well. The cells were preincubated for 1 hour in Krebs-Ringer buffer (KRB), followed by incubation for the indicated period of time in KRB containing 0.5 mM 1-isobutyl 3-methylxanthine (IBMX) and glucose at various concentrations. The cells were then extracted in acetic acid, and the amount of insulin in the buffer and cell extract was determined by radioimmunoassay (RIA) using the INSIK-5 kit (DiaSorin, Vercelli, Italy) according to the manufacturer. This assay has <20% crossreactivity with proinsulin. In addition, insulin content was determined using an ELISA kit (Diagnostic Systems Laboratories, Webster, Tex. or (Mercodia, Uppsala, Sweden), which recognizes only mature insulin. Insulin content was normalized to total cellular protein, measured by the Bio-Rad (Hercules, Calif.) Protein Assay kit. Human C-peptide in the cell extract was determined using a RIA kit (DiaSorin, Vercelli, Italy) or ELISA kit (Mercodia, Uppsala, Sweden) according to the manufacturers.

In the case of exendin-4 [reference compound], the “Effect on insulin content of FH-B-TPN cells (in words)” value is recorded as “decrease”. Moreover, for the setting “2-8 nM in CM (6 d)”, the Insulin content is on record as 0 ng/10^6 cells and the “Fold increase (insulin content)” value came to 0.
With `NC(=O)c1cccnc1` [NA, nicotinamide, reference compound], the “Effect on insulin content of FH-B-TPN cells (in words)” value is “decrease”. Where the note is “5 mM in CM (6 d)”, the Insulin content was found to be 122 ± 20 ng/10^6 cells and the “Fold increase (insulin content)” value was 0.6.
